The target in assay [1] is T1, Alpha-2A adrenergic receptor (Homo sapiens, UniProt P08913).
T1 sequence (P08913 whole entry): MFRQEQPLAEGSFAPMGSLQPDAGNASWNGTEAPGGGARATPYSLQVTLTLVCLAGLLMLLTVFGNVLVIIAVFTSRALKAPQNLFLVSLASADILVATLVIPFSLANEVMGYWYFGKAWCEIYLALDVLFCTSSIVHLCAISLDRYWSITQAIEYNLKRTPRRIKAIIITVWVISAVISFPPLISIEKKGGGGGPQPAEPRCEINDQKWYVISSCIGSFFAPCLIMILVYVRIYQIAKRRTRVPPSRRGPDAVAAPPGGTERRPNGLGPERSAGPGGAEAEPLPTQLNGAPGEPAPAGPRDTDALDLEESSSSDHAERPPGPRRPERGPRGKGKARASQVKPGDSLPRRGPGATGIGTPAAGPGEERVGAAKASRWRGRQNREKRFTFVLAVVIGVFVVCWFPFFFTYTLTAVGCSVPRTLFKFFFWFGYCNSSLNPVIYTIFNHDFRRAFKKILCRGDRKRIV

Assay [2] concerns the target T2, Muscarinic acetylcholine receptor M2 (Rattus norvegicus, UniProt P10980).
T2 sequence (P10980 whole entry): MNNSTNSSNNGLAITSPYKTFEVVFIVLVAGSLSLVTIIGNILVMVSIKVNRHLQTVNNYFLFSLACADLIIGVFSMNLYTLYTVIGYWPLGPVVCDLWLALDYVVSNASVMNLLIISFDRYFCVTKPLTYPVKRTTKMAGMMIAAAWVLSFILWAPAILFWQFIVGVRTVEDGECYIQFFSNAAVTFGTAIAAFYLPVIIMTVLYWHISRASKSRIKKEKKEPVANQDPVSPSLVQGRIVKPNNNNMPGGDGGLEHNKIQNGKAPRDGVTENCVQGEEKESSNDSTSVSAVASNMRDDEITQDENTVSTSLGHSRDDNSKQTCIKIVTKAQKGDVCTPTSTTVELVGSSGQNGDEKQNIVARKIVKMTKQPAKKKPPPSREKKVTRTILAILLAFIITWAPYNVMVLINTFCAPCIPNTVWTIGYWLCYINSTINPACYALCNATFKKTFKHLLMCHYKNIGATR

Assay [3] deals with T3, 5-hydroxytryptamine receptor 1A (Rattus norvegicus, UniProt P19327).
T3 sequence (P19327 whole entry): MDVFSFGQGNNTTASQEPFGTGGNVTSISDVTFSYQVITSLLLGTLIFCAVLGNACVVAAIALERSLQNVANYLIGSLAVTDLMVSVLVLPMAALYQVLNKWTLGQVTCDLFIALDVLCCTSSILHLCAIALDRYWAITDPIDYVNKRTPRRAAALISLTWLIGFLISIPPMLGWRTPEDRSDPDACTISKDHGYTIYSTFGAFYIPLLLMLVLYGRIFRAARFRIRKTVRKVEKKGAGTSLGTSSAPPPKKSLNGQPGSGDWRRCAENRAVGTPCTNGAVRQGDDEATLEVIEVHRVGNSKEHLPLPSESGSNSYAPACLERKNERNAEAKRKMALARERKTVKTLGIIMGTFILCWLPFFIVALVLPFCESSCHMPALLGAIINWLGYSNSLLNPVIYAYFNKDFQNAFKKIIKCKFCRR

Assay [4] deals with Sodium-dependent serotonin transporter (Rattus norvegicus, UniProt P31652).
Sodium-dependent serotonin transporter, sequence (P31652 whole entry): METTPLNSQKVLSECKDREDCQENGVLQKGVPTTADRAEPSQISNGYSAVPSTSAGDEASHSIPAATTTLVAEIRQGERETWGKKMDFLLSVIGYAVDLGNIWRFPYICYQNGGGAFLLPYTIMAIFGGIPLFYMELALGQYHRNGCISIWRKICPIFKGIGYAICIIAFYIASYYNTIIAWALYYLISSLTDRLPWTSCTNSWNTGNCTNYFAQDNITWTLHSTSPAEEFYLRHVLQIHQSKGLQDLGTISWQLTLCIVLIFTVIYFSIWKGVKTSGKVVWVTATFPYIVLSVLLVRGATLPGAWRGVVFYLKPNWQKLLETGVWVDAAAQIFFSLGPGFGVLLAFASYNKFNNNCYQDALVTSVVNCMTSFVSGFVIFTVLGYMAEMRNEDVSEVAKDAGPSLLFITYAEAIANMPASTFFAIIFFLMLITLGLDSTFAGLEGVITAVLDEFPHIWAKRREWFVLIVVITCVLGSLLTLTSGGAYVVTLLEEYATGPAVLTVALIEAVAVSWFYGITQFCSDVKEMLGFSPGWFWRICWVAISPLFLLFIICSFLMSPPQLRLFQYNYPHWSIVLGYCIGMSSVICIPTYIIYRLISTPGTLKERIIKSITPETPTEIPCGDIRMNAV

As a reminder, the Ki is a measure of affinity in units of concentration, obtained from inhibition or displacement.

Turning to `CN(C)CCC=C1c2ccccc2CCc2ccccc21`, the results for the Ki in assay [1], in assay [2] and in assay [3] were 114 nM, 2.6 nM and 129 nM, respectively.
For `CCc1nn(CCCN2CCN(c3cccc(Cl)c3)CC2)c(=O)n1CCOc1ccccc1` [2-{3-[4-(3-chlorophenyl)piperazin-1-yl]propyl}-5-ethyl-4-(2-phenoxyethyl)-2,4-dihydro-3H-1,2,4-triazol-3-one], the figures for the Ki in assay [2] and in assay [3] were 4570 nM and 52 nM, respectively.
`O=c1n(CCCN2CCN(c3cccc(Cl)c3)CC2)nc2ccccn12` [2-{3-[4-(3-chlorophenyl)piperazin-1-yl]propyl}[1,2,4]triazolo[4,3-a]pyridin-3(2H)-one] gave a Ki in assay [2] of more than 10000 nM.
Consider `CNCCCN1c2ccccc2CCc2ccccc21` [Desmethylimipramine], for which the Ki in assay [2] is 37 nM.
As for `COc1ccc(C(CN(C)C)C2(O)CCCCC2)cc1` (stereo unspecified) [NSC_62923], the Ki in assay [1], in assay [2] and in assay [3] was more than 10000 nM in each case.
As for `CC(O)c1nn(CCCN2CCN(c3ccc(Cl)cc3)CC2)c(=O)n1CCOc1ccccc1` (stereo unspecified) [NSC_127096], the Ki in assay [1] is 63 nM; in assay [2], more than 10000 nM; in assay [4] it was 612 nM; in assay [3], 56 nM.
In the case of `Fc1ccc([C@@H]2CCNC[C@H]2COc2ccc3c(c2)OCO3)cc1` [PAROXETINE], the Ki is 42 nM in assay [2] and more than 10000 nM in assay [3].
On to `O=c1[nH]n(CCCN2CCN(c3cccc(Cl)c3)CC2)c(=O)n1CCOc1ccccc1` [Triazoledione], for which the Ki is 1920 nM in assay [1], more than 10000 nM in assay [2], more than 10000 nM in assay [4] and 1370 nM in assay [3].
Turning to `CN[C@@H]1CC[C@@H](c2ccc(Cl)c(Cl)c2)c2ccccc21` [[4-(3,4-Dichloro-phenyl)-1,2,3,4-tetrahydro-naphthalen-1-yl]-methyl-amine], the values for the Ki in assay [2] and in assay [3] were 232 nM and 3660 nM, respectively.
As to `Clc1cccc(N2CCNCC2)c1` [mCPP], the Ki in assay [1] came out at 112 nM; in assay [2], 4700 nM; in assay [4], 218 nM; in assay [3], 16 nM.

The record behind these values is BindingDB's records for PubMed 9400006 (Emory University, 1997).
